#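 Method: 48-hour compound exposure of cells in 96-well plates, five concentrations, linear interpolation of endpoints. GI50 = concentration required for 50% inhibition of growth. Definition used: TGI = concentration required for complete inhibition of growth.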
# Tests used:
# Assay in all cases: NCI tumour cell line growth inhibition, 48 h
# SK-OV-3 ovarian = tested on: SK-OV-3 ovarian
# MCF7 breast = tested on: MCF7 breast
# K-562 leukemia = tested on: K-562 leukemia
# HOP-92 NSCLC = tested on: HOP-92 NSCLC
# SF-268 CNS = tested on: SF-268 CNS
# UACC-62 melanoma = tested on: UACC-62 melanoma
# NCI-H226 lung = tested on: NCI-H226 lung
# SW-620 colon = tested on: SW-620 colon
# HS 578T breast = tested on: HS 578T breast
# HOP-62 NSCLC = tested on: HOP-62 NSCLC
# RPMI-8226 leukemia = tested on: RPMI-8226 leukemia
# A549 NSCLC = tested on: A549 NSCLC
# DU-145 prostate = tested on: DU-145 prostate
# MDA-MB-435 = tested on: MDA-MB-435
# OVCAR-8 ovarian = tested on: OVCAR-8 ovarian
# HCT-15 colon = tested on: HCT-15 colon
# KM12 colon = tested on: KM12 colon
# M14 melanoma = tested on: M14 melanoma
# CCRF-CEM leukemia = tested on: CCRF-CEM leukemia
# EKVX NSCLC = tested on: EKVX NSCLC
# UACC-257 melanoma = tested on: UACC-257 melanoma
# SNB-75 CNS = tested on: SNB-75 CNS
# MALME-3M melanoma = tested on: MALME-3M melanoma
# PC-3 prostate = tested on: PC-3 prostate
# ACHN renal = tested on: ACHN renal
# 786-0 renal = tested on: 786-0 renal
# U251 CNS = tested on: U251 CNS
# HT29 colon = tested on: HT29 colon
# HL-60(TB) leukemia = tested on: HL-60(TB) leukemia
# TK-10 renal = tested on: TK-10 renal
# SK-MEL-2 melanoma = tested on: SK-MEL-2 melanoma
# SF-539 CNS = tested on: SF-539 CNS
# COLO 205 colon = tested on: COLO 205 colon
# SNB-19 CNS = tested on: SNB-19 CNS
# LOX IMVI melanoma = tested on: LOX IMVI melanoma
# CAKI-1 renal = tested on: CAKI-1 renal
# NCI/ADR-RES ovarian = tested on: NCI/ADR-RES ovarian
# T-47D breast = tested on: T-47D breast
# SK-MEL-5 melanoma = tested on: SK-MEL-5 melanoma
# RXF 393 renal = tested on: RXF 393 renal
# NCI-H460 lung = tested on: NCI-H460 lung
# UO-31 renal = tested on: UO-31 renal
# OVCAR-3 ovarian = tested on: OVCAR-3 ovarian
# BT-549 breast = tested on: BT-549 breast
# SK-MEL-28 melanoma = tested on: SK-MEL-28 melanoma
# NCI-H23 lung = tested on: NCI-H23 lung
# HCT-116 colon = tested on: HCT-116 colon
# SF-295 CNS = tested on: SF-295 CNS
# A498 renal = tested on: A498 renal
# SR leukemia = tested on: SR leukemia
# IGROV1 ovarian = tested on: IGROV1 ovarian
# MOLT-4 leukemia = tested on: MOLT-4 leukemia
# NCI-H522 lung = tested on: NCI-H522 lung
# HCC-2998 colon = tested on: HCC-2998 colon
structure (smiles),measurement,setting,value
CC[N+](CC)=c1cc2oc3cc(N(C)C)ccc3nc-2cc1C,GI50,SK-OV-3 ovarian,4.45 µM
same,TGI,SK-OV-3 ovarian,98.7 µM
same,GI50,MCF7 breast,0.352 µM
same,TGI,MCF7 breast,2.48 µM
same,GI50,K-562 leukemia,1.78 µM
same,TGI,K-562 leukemia,> 100 µM
same,GI50,HOP-92 NSCLC,1.15 µM
same,TGI,HOP-92 NSCLC,8.19 µM
same,GI50,SF-268 CNS,1.18 µM
same,TGI,SF-268 CNS,3.48 µM
same,GI50,UACC-62 melanoma,3.24 µM
same,TGI,UACC-62 melanoma,31.1 µM
same,GI50,NCI-H226 lung,6.76 µM
same,TGI,NCI-H226 lung,47.2 µM
same,GI50,SW-620 colon,0.791 µM
same,TGI,SW-620 colon,23 µM
same,GI50,HS 578T breast,10.5 µM
same,TGI,HS 578T breast,64.2 µM
same,GI50,HOP-62 NSCLC,1.98 µM
same,TGI,HOP-62 NSCLC,37.1 µM
same,GI50,RPMI-8226 leukemia,0.628 µM
same,TGI,RPMI-8226 leukemia,10.1 µM
same,GI50,A549 NSCLC,1.71 µM
same,TGI,A549 NSCLC,16 µM
same,GI50,DU-145 prostate,4.36 µM
same,TGI,DU-145 prostate,33.4 µM
same,GI50,MDA-MB-435,2.15 µM
same,TGI,MDA-MB-435,17.7 µM
same,GI50,OVCAR-8 ovarian,2.11 µM
same,TGI,OVCAR-8 ovarian,9.93 µM
same,GI50,HCT-15 colon,2.75 µM
same,TGI,HCT-15 colon,> 100 µM
same,GI50,KM12 colon,0.975 µM
same,TGI,KM12 colon,14.7 µM
same,GI50,M14 melanoma,0.471 µM
same,TGI,M14 melanoma,2.65 µM
same,GI50,CCRF-CEM leukemia,2.3 µM
same,TGI,CCRF-CEM leukemia,65.4 µM
same,GI50,EKVX NSCLC,1.53 µM
same,TGI,EKVX NSCLC,17.3 µM
same,GI50,UACC-257 melanoma,0.306 µM
same,TGI,UACC-257 melanoma,1.56 µM
same,GI50,SNB-75 CNS,2.59 µM
same,TGI,SNB-75 CNS,11.1 µM
same,GI50,MALME-3M melanoma,1.53 µM
same,TGI,MALME-3M melanoma,5.33 µM
same,GI50,PC-3 prostate,0.454 µM
same,TGI,PC-3 prostate,> 100 µM
same,GI50,ACHN renal,10.8 µM
same,TGI,ACHN renal,> 100 µM
same,GI50,786-0 renal,5.12 µM
same,TGI,786-0 renal,> 100 µM
same,GI50,U251 CNS,0.538 µM
same,TGI,U251 CNS,6.06 µM
same,GI50,HT29 colon,3.47 µM
same,TGI,HT29 colon,> 100 µM
same,GI50,HL-60(TB) leukemia,0.313 µM
same,TGI,HL-60(TB) leukemia,2.83 µM
same,GI50,TK-10 renal,1.94 µM
same,TGI,TK-10 renal,8.38 µM
same,GI50,SK-MEL-2 melanoma,0.519 µM
same,TGI,SK-MEL-2 melanoma,4.82 µM
same,GI50,SF-539 CNS,0.39 µM
same,TGI,SF-539 CNS,13.1 µM
same,GI50,COLO 205 colon,0.66 µM
same,TGI,COLO 205 colon,2.27 µM
same,GI50,SNB-19 CNS,2.9 µM
same,TGI,SNB-19 CNS,> 100 µM
same,GI50,LOX IMVI melanoma,1.71 µM
same,TGI,LOX IMVI melanoma,12.3 µM
same,GI50,CAKI-1 renal,3.07 µM
same,TGI,CAKI-1 renal,19.6 µM
same,GI50,NCI/ADR-RES ovarian,4.23 µM
same,TGI,NCI/ADR-RES ovarian,> 100 µM
same,GI50,T-47D breast,0.563 µM
same,TGI,T-47D breast,> 100 µM
same,GI50,SK-MEL-5 melanoma,1.04 µM
same,TGI,SK-MEL-5 melanoma,5.69 µM
same,GI50,RXF 393 renal,15.2 µM
same,TGI,RXF 393 renal,90.1 µM
same,GI50,NCI-H460 lung,1.86 µM
same,TGI,NCI-H460 lung,73.6 µM
same,GI50,UO-31 renal,3.76 µM
same,TGI,UO-31 renal,41.9 µM
same,GI50,OVCAR-3 ovarian,0.296 µM
same,TGI,OVCAR-3 ovarian,1.02 µM
same,GI50,BT-549 breast,0.932 µM
same,TGI,BT-549 breast,13.6 µM
same,GI50,SK-MEL-28 melanoma,8.4 µM
same,TGI,SK-MEL-28 melanoma,42.1 µM
same,GI50,NCI-H23 lung,0.482 µM
same,TGI,NCI-H23 lung,6.79 µM
same,GI50,HCT-116 colon,0.563 µM
same,TGI,HCT-116 colon,4.85 µM
same,GI50,SF-295 CNS,1.93 µM
same,TGI,SF-295 CNS,16.8 µM
same,GI50,A498 renal,1.54 µM
same,TGI,A498 renal,30.8 µM
same,GI50,SR leukemia,2.74 µM
same,TGI,SR leukemia,75 µM
COc1cc(/C=C/C(=O)c2ccc(Nc3nc(NCCO)nc(N4CCOCC4)n3)cc2)cc(OC)c1OC,GI50,SK-OV-3 ovarian,3.05 µM
same,TGI,SK-OV-3 ovarian,27.5 µM
same,GI50,MCF7 breast,1.17 µM
same,TGI,MCF7 breast,2.77 µM
same,GI50,K-562 leukemia,0.783 µM
same,TGI,K-562 leukemia,7.56 µM
same,GI50,HOP-92 NSCLC,1.61 µM
same,TGI,HOP-92 NSCLC,7.4 µM
same,GI50,IGROV1 ovarian,1.9 µM
same,TGI,IGROV1 ovarian,4.59 µM
same,GI50,SF-268 CNS,1.88 µM
same,TGI,SF-268 CNS,5.54 µM
same,GI50,UACC-62 melanoma,1.54 µM
same,TGI,UACC-62 melanoma,3.2 µM
same,GI50,NCI-H226 lung,2.15 µM
same,TGI,NCI-H226 lung,5.18 µM
same,GI50,HS 578T breast,1.65 µM
same,TGI,HS 578T breast,5.46 µM
same,GI50,HOP-62 NSCLC,2.72 µM
same,TGI,HOP-62 NSCLC,7.75 µM
same,GI50,A549 NSCLC,2.18 µM
same,TGI,A549 NSCLC,> 100 µM
same,GI50,MOLT-4 leukemia,1.19 µM
same,TGI,MOLT-4 leukemia,4.37 µM
same,GI50,OVCAR-8 ovarian,2.2 µM
same,TGI,OVCAR-8 ovarian,> 100 µM
same,GI50,HCT-15 colon,1.43 µM
same,TGI,HCT-15 colon,4.4 µM
same,GI50,CCRF-CEM leukemia,0.935 µM
same,TGI,CCRF-CEM leukemia,3.54 µM
same,GI50,EKVX NSCLC,2.83 µM
same,TGI,EKVX NSCLC,> 100 µM
same,GI50,PC-3 prostate,2.14 µM
same,TGI,PC-3 prostate,7.18 µM
same,GI50,NCI-H522 lung,1.59 µM
same,TGI,NCI-H522 lung,4.11 µM
same,GI50,ACHN renal,1.95 µM
same,TGI,ACHN renal,5.61 µM
same,GI50,U251 CNS,1.38 µM
same,TGI,U251 CNS,2.97 µM
same,GI50,HL-60(TB) leukemia,1.79 µM
same,TGI,HL-60(TB) leukemia,4.78 µM
same,GI50,SK-MEL-2 melanoma,1.71 µM
same,TGI,SK-MEL-2 melanoma,3.73 µM
same,GI50,SF-539 CNS,1.63 µM
same,TGI,SF-539 CNS,3.16 µM
same,GI50,HCC-2998 colon,1.8 µM
same,TGI,HCC-2998 colon,3.3 µM
same,GI50,CAKI-1 renal,2.09 µM
same,TGI,CAKI-1 renal,11 µM
same,GI50,T-47D breast,1.8 µM
same,TGI,T-47D breast,6.68 µM
same,GI50,SK-MEL-5 melanoma,1.76 µM
same,TGI,SK-MEL-5 melanoma,3.28 µM
same,GI50,RXF 393 renal,1.46 µM
same,TGI,RXF 393 renal,3.23 µM
same,GI50,NCI-H460 lung,1.58 µM
same,TGI,NCI-H460 lung,3.47 µM
same,GI50,OVCAR-3 ovarian,1.69 µM
same,TGI,OVCAR-3 ovarian,4.26 µM
same,GI50,BT-549 breast,1.35 µM
same,TGI,BT-549 breast,2.86 µM
same,GI50,NCI-H23 lung,2.03 µM
same,TGI,NCI-H23 lung,5.17 µM
same,GI50,HCT-116 colon,1.3 µM
same,TGI,HCT-116 colon,3 µM
same,GI50,SF-295 CNS,3.03 µM
same,TGI,SF-295 CNS,> 100 µM
same,GI50,A498 renal,1.32 µM
same,TGI,A498 renal,5.01 µM
same,GI50,SR leukemia,0.422 µM
same,TGI,SR leukemia,3.22 µM

# From PubChem BioAssay (NCI)
